Measured values reported in US10208045B2, “Aza-pyridone compounds and uses thereof” (Alios BioPharma, Inc., priority 2015, dated 2019).

Columns and labels:
[1] = system: Influenza strain A549_A/WSN/33 (H1N1); assay: Influenza antiviral assay (neuraminidase fluorescence readout in A549 or MDCK cells); type: cell-based; details: Influenza A virus, read-out: % Inhibition (EC50 class)
[2] = target: Full length EN PA (influenza endonuclease) (Influenza A virus, UniProt P15659); assay: EN PA FRET inhibition assay; type: biochemical; details: 50 Nm FRET probe, mean of a minimum of two independent experiments, read-out: Potency (IC50 class)

| SMILES | EC50 [1] | IC50 [2] |
| --- | --- | --- |
| CCCN1C[C@H](C(c2cccc(F)c2)c2cccc(F)c2)n2ncc(=O)c(OC(C)=O)c2C1=O (single isomer, unassigned) [Compound 1] | < 20 µM | < 0.25 µM |
| CN1C[C@H]([C@@H](c2ccccc2)n2cc(C#CC3CC3)c(C#CC3CC3)n2)n2ncc(=O)c(O)c2C1=O (single isomer, unassigned) [Compound 13] | < 20 µM | < 0.25 µM |
| CN1C[C@H]([C@@H](c2ccccc2)n2cc(C#CCO)c(C#CCO)n2)n2ncc(=O)c(O)c2C1=O (single isomer, unassigned) [Compound 14] | < 20 µM | < 0.25 µM |
| CC(C)OC(=O)OCOc1c2n(ncc1=O)[C@@H](C(c1ccccc1)c1ccccc1)CN(C(C)C)C2=O [Compound 2] | < 20 µM | ≥ 1 µM |
| CC(=O)Oc1c2n(ncc1=O)[C@@H](C1c3cccc(F)c3CCc3c(F)cccc31)CN(C(C)C)C2=O [Compound 3] | < 20 µM | < 0.25 µM |
| CC(C)N1C[C@H](C(c2ccccc2)c2ccccc2)n2ncc(=O)c(O[C@@H]3OC(C(=O)O)[C@@H](O)C(O)C3O)c2C1=O (stereo partly drawn) [Compound 4] | < 20 µM | < 0.25 µM |
| CN1CC(C(c2ccccc2)c2cn(C)c3cc(F)ccc23)n2ncc(=O)c(O)c2C1=O (stereo not drawn) [Compound 5] | < 20 µM | < 0.25 µM |
| CCn1cc([C@@H](c2ccccc2)[C@H]2CN(C)C(=O)c3c(O)c(=O)cnn32)c2ccc(Br)cc21 [Compound 6] | < 20 µM | 0.25 to 1 µM |
| CN1C[C@H]([C@@H](c2ccccc2)n2cc(I)c(I)n2)n2ncc(=O)c(O)c2C1=O [Compound 7] | < 20 µM | < 0.25 µM |
| CN1C[C@H]([C@H](c2ccccc2)n2cc(I)c(I)n2)n2ncc(=O)c(O)c2C1=O [Compound 8] | < 20 µM | < 0.25 µM |
| CC(C)N1C[C@H](C(c2cccs2)c2cccs2)n2ncc(=O)c(O)c2C1=O [Compound 9] | < 20 µM | < 0.25 µM |
| O=C1NC[C@H](C(c2ccccc2)c2ccccc2)n2ncc(=O)c(O)c21 [Compound 10] | < 20 µM | < 0.25 µM |
| C#Cc1cccc(C(c2cccc(C#C)c2)C2CN(C(C)C)C(=O)c3c(O)c(=O)cnn32)c1 (stereo not drawn) [Compound 11] | < 20 µM | < 0.25 µM |
| CC#Cc1cn([C@@H](c2ccccc2)[C@H]2CN(C)C(=O)c3c(O)c(=O)cnn32)nc1C#CC [Compound 12] | < 20 µM | 0.25 to 1 µM |
| C#Cc1cccc([C@@H](c2ccccc2)[C@H]2CN(C(C)C)C(=O)c3c(O)c(=O)cnn32)c1 [Compound 15] | < 20 µM | < 0.25 µM |
| C#Cc1cn([C@@H](c2ccccc2)[C@H]2CN(C)C(=O)c3c(O)c(=O)cnn32)nc1C#C [Compound 16] | < 20 µM | < 0.25 µM |
| [2H]C([2H])([2H])C([2H])(N1C[C@H](C(c2ccccc2)c2ccccc2)n2ncc(=O)c(O)c2C1=O)C([2H])([2H])[2H] [Compound 17] | < 20 µM | < 0.25 µM |
| CCCCN1C[C@H](C(c2ccccc2)c2ccccc2)n2ncc(=O)c(O)c2C1=O [Compound 18] | < 20 µM | < 0.25 µM |
| CCCN1C[C@H](C2c3ccccc3CCc3ccccc32)n2ncc(=O)c(O)c2C1=O [Compound 19] | < 20 µM | < 0.25 µM |
| CCCN1C[C@@H](C2c3ccccc3CCc3ccccc32)n2ncc(=O)c(O)c2C1=O [Compound 20] | < 20 µM | 0.25 to 1 µM |
| CCCN1C[C@H](C2c3cccc(F)c3CCc3c(F)cccc32)n2ncc(=O)c(O)c2C1=O [Compound 21] | < 20 µM | < 0.25 µM |
| CCCN1C[C@@H](C2c3cccc(F)c3CCc3c(F)cccc32)n2ncc(=O)c(O)c2C1=O [Compound 22] | < 20 µM | ≥ 1 µM |
| CC(C)C(=O)Oc1c2n(ncc1=O)[C@@H](C1c3ccccc3CCc3ccccc31)CN(C(C)C)C2=O [Compound 23] | < 20 µM | < 0.25 µM |
| CC(=O)Oc1c2n(ncc1=O)[C@@H](C1c3ccccc3CCc3ccccc31)CN(C(C)C)C2=O [Compound 24] | < 20 µM | < 0.25 µM |
| CCCN1C[C@H](C2c3ccccc3CCc3ccccc32)n2ncc(=O)c(OC(C)=O)c2C1=O [Compound 25] | < 20 µM | < 0.25 µM |
| CCCN1C[C@H](C2c3ccccc3CCc3ccccc32)n2ncc(=O)c(OC(=O)C(C)C)c2C1=O [Compound 26] | < 20 µM | < 0.25 µM |

| SMILES | EC50 [1] | IC50 [2] |
| --- | --- | --- |
| CCN1C[C@H](C2c3ccccc3CCc3ccccc32)n2ncc(=O)c(OC(C)=O)c2C1=O [Compound 27] | < 20 µM | < 0.25 µM |
| CCN1C[C@H](C2c3ccccc3CCc3ccccc32)n2ncc(=O)c(OC(=O)C(C)C)c2C1=O [Compound 28] | – | < 0.25 µM |
| CCCN1C[C@H](C2c3cccc(F)c3CCc3c(F)cccc32)n2ncc(=O)c(OC(C)=O)c2C1=O [Compound 29] | < 20 µM | < 0.25 µM |
| CC(C)OC(=O)Oc1c2n(ncc1=O)[C@@H](C1c3cccc(F)c3CCc3c(F)cccc31)CN(C(C)C)C2=O [Compound 30] | < 20 µM | < 0.25 µM |
| CC(C)COC(=O)Oc1c2n(ncc1=O)[C@@H](C1c3cccc(F)c3CCc3c(F)cccc31)CN(C(C)C)C2=O [Compound 31] | < 20 µM | < 0.25 µM |
| CC(C)N1C[C@H]([C@@H](c2ccccc2)n2cc(C#CC3CC3)c(C#CC3CC3)n2)n2ncc(=O)c(O)c2C1=O [Compound 33] | < 20 µM | 0.25 to 1 µM |
| CC(C)N1C[C@H]([C@@H](c2ccccc2)n2cc(C#CCO)c(C#CCO)n2)n2ncc(=O)c(O)c2C1=O [Compound 34] | < 20 µM | < 0.25 µM |
| CN1C[C@H]([C@H](c2ccccc2)n2cc(C#CC3CC3)c(C#CC3CC3)n2)n2ncc(=O)c(O)c2C1=O [Compound 35] | < 20 µM | ≥ 1 µM |
| CN1C[C@H]([C@H](c2ccccc2)n2cc(C#CCO)c(C#CCO)n2)n2ncc(=O)c(O)c2C1=O [Compound 36] | < 20 µM | < 0.25 µM |
| Cc1cccc(C(c2cccc(C)c2)[C@H]2CN(C(C)C)C(=O)c3c(O)c(=O)cnn32)c1 [Compound 37] | < 20 µM | < 0.25 µM |
| O=C1c2c(O)c(=O)cnn2[C@@H](C(c2ccccc2)c2ccccc2)CN1Cc1ccccc1 [Compound 38] | < 20 µM | < 0.25 µM |
| CC(C)[C@H](N)C(=O)OCOc1c2n(ncc1=O)[C@@H](C1c3cccc(F)c3CCc3c(F)cccc31)CN(C(C)C)C2=O [Compound 39] | < 20 µM | < 0.25 µM |
| CC(C)[C@H](N)C(=O)OCOc1c2n(ncc1=O)[C@@H](C1c3ccccc3CCc3ccccc31)CN(C(C)C)C2=O [Compound 40] | < 20 µM | < 0.25 µM |
| CC(C)OC(=O)OCOc1c2n(ncc1=O)[C@@H](C1c3cccc(F)c3CCc3c(F)cccc31)CN(C(C)C)C2=O [Compound 41] | < 20 µM | < 0.25 µM |
| CN1C[C@H]([C@H](c2ccccc2)n2cc(C#CC3(O)CCC3)c(C#CC3(O)CCC3)n2)n2ncc(=O)c(O)c2C1=O [Compound 46] | 20 to 100 µM | 0.25 to 1 µM |
| CCn1cc([C@@H](c2ccccc2)[C@H]2CN(C)C(=O)c3c(O)c(=O)cnn32)c2ccc(CO)cc21 [Compound 48] | – | ≥ 1 µM |
| CCn1cc([C@H](c2ccccc2)[C@H]2CN(C)C(=O)c3c(O)c(=O)cnn32)c2ccc(CO)cc21 [Compound 49] | – | ≥ 1 µM |
| CCCN1C[C@H](C(c2cccc(Cl)c2)c2cccc(Cl)c2)n2ncc(=O)c(OC(C)=O)c2C1=O [Compound 54] | < 20 µM | < 0.25 µM |
| CCCN1C[C@H](C2c3cccc(Cl)c3CCc3c(Cl)cccc32)n2ncc(=O)c(O)c2C1=O [Compound 99] | < 20 µM | < 0.25 µM |
| CN1C[C@H](C2c3cccc(Cl)c3CCc3c(Cl)cccc32)n2ncc(=O)c(O)c2C1=O [Compound 100] | < 20 µM | < 0.25 µM |
| CC(C)N1C[C@H](C2c3ccc(F)cc3CCc3cc(F)ccc32)n2ncc(=O)c(O)c2C1=O [Compound 101] | < 20 µM | < 0.25 µM |
| CCCN1C[C@H](C2c3ccc(F)cc3CCc3cc(F)ccc32)n2ncc(=O)c(O)c2C1=O [Compound 102] | < 20 µM | < 0.25 µM |
| CC(C)N1C[C@H](C2c3ccc(Cl)cc3CCc3cc(Cl)ccc32)n2ncc(=O)c(O)c2C1=O [Compound 103] | < 20 µM | < 0.25 µM |
| CCCN1C[C@H](C2c3ccc(Cl)cc3CCc3cc(Cl)ccc32)n2ncc(=O)c(O)c2C1=O [Compound 104] | < 20 µM | < 0.25 µM |
| CC(=O)Oc1c2n(ncc1=O)[C@@H](C(c1cccc(Cl)c1)c1cccc(Cl)c1)CN(C(C)C)C2=O [Compound 107] | < 20 µM | < 0.25 µM |
